Measurements published in publication PMC4607650 (Bioorganic & medicinal chemistry letters, 2015).
“Also recorded” adds a separate entry of the source.

Assays:
hP2Y14R [1] = molecular target: T1, hP2Y14R (Homo sapiens, UniProt Q15391); assay: competition for fluorescent binding of tracer 11
T1 sequence (Q15391 1-338): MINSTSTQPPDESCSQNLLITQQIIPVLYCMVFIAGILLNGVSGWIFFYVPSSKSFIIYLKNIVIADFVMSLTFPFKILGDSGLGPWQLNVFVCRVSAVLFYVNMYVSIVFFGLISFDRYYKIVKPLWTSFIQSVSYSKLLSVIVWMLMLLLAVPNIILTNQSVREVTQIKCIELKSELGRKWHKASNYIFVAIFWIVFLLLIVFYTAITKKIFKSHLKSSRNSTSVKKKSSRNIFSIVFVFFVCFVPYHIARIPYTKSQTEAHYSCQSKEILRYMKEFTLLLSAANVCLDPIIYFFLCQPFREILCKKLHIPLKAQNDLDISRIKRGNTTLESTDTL

P2Y14R-CHO cells = molecular target: T2, P2Y14R-CHO cells (Homo sapiens, UniProt Q15391); assay: confocal fluorescence microscopy labeling of P2Y14R-CHO cells by 11; type: cell-based
T2 sequence (Q15391 1-338): T1 sequence (Q15391 1-338)

human P2Y14R = molecular target: T3, human P2Y14R (Homo sapiens, UniProt Q15391); assay: inhibition of forskolin-stimulated cAMP accumulation in CHO-P2Y14R cells; type: cell-based; details: cAMP EC50 ratio, hP2Y14R-CHO cells
T3 sequence (Q15391 1-338): T1 sequence (Q15391 1-338)

hP2Y14R [2] = molecular target: T1, hP2Y14R; type: binding
P2Y6R = details: read-out: EC50 for activation of the P2Y6R; cited from earlier work

Structure (SMILES): O=C(O)c1cc(-c2ccc(C3CCNCC3)cc2)c2ccc(-c3ccc(C(F)(F)F)cc3)cc2c1 [Compound 5, 4-(4-(piperidin-4-yl)-phenyl)-7-(4-(trifluoromethyl)-phenyl)-2-naphthoic acid]
- inhibition of binding of 11 (FCM, concentration dependence) (hP2Y14R [1]): Nearly complete inhibition
- inhibition of fluorescent labeling by 11 (confocal microscopy) (P2Y14R-CHO cells): complete inhibition of binding

Structure (SMILES): O=C(COc1ccc(C2=[N+]3C(=Cc4ccc(-c5cccs5)n4[B-]3(F)F)C=C2)cc1)NCCCCCNC(=O)[C@H]1O[C@H](OP(=O)(O)OP(=O)(O)OCC2OC(n3ccc(=O)[nH]c3=O)C(O)C2O)[C@H](O)[C@@H](O)[C@@H]1O (some centres unmarked) [Compound 11]
- potency enhancement of the fluorescent conjugate versus 47 nM parent (human P2Y14R): 50 fold
- Bmax (hP2Y14R [2]; FCM saturation binding, n=3): 44,400 MESF
- level of nonspecific binding (hP2Y14R [2]; FCM, coincubation with up to 200 nM 5): very low

Structure (SMILES): CONc1ccn([C@@H]2O[C@H](COP(=O)(O)OP(=O)(O)OP(=O)(O)OC[C@H]3O[C@@H](n4ccc(=O)[nH]c4=O)[C@@H](O)[C@H]3O)[C@H](O)[C@@H]2O)c(=O)n1 [Compound 12, P^1-(uridine 5′-)-P^3-(N^4-methoxycytidine 5′-)triphosphate]
- EC50 (P2Y6R): 12 nM
- Ki at P2Y14R relative to EC50 at P2Y6R (hP2Y14R [1]; Ki (FCM, P2Y14R) higher than P2Y6R EC50): about 500 fold

Structure (SMILES): S=C=Nc1cccc(NC(=S)NCCCCNC(=S)Nc2cccc(N=C=S)c2)c1 [Compound 13]
- inhibition of binding of 11 at hP2Y14R at fixed concentration (hP2Y14R [1]; test ligand at 10 μM, tracer 11 50 nM, FCM): did not show any significant binding; also recorded: No inhibition at 10 μM
